Data set [1] deals with CHO cells. As to the kind of experiment: Propidium iodide staining for late apoptosis and necrosis. In kind it is cell-based, Chinese hamster. The settings on record: 30 μM, 24 h. The method, then: (§1) Referring now to FIG. 3, the cytotoxicity of cholesterol mimics was evaluated by MTT cell-viability assays after treating CHO cells with cholesterol mimic. Various concentrations of cholesterol mimic were added to the culture media and the cells were incubated for 48 hours before the assays were conducted. […] Adding a phenyl group reduced the cytotoxicity. To directly visualize the toxic effect, we stained the cells with propidium iodide for late apoptosis and necrosis.
To evaluate the cytotoxicity of tagged cholesterols, we performed MTT cell-viability assays after treating CHO cells with tagged cholesterol. Various concentrations of tagged cholesterol were added to the culture media and the cells were incubated for 48 h before the assays were conducted. […] To directly visualize the toxic effect, we stained the cells with propidium iodide for late apoptosis and necrosis. […] Based on the signal level and the severity of toxicity, we conclude that PhDY-Chol is the most suitable cholesterol probe for live cell imaging, and we used PhDY-Chol in subsequent experiments.
Propidium iodide was used to stain late apoptotic or necrotic cells. CHO cells were incubated with 30 μM of tagged cholesterol molecules for 24 h. The propidium iodide staining was performed following protocols provided by the manufacturer (Life Technologies).

Data set [2] can be described thus: MTT cell-viability assay of tagged cholesterols. The data set is classed as cell-based, Chinese hamster. Particulars: Chinese hamster; CHO cells, 48 h incubation; read-out: IC50 (cytotoxicity, MTT cell viability). As to the method:
as §1
(§2) To evaluate the cytotoxicity of tagged cholesterols, we performed MTT cell-viability assays after treating CHO cells with tagged cholesterol. […] To directly visualize the toxic effect, we stained the cells with propidium iodide for late apoptosis and necrosis. […] Based on the signal level and the severity of toxicity, we conclude that PhDY-Chol is the most suitable cholesterol probe for live cell imaging, and we used PhDY-Chol in subsequent experiments.
(§3) CHO cells were grown in 96-well plates with density of 4000 cells per well. The next day, the cells were treated with each cholesterol probe at the indicated concentrations for 48 h. Cell-viability was measured with the MTT colorimetric assay (Sigma).
For orientation: Formazan colour is commonly taken as a measure of viable cells.

Data set [3] relates to CHO cells. As to the kind of experiment: MTT cell-viability assay of tagged cholesterols. In kind it is cell-based, Chinese hamster. As to the method:
as §1, §2, §3

Data set [4] can be described thus: Photostability under continuous SRS / TPEF image acquisition. The data set is classed as physicochemical. Particulars: 50 mM solution, acquired continuously for 150 s, one acquisition every 30 s. The method, then: FIG. 14. The photostability of PhDY-Chol and the photo-bleaching of BODIPY-Chol. The SRS images of 50 mM PhDY-Chol solution and TPEF images of 50 mM BODIPY-Chol solution were acquired continuously for 150 s (one acquisition every 30 s).

For another data set, the target named is T1, ACAT-1 (Cricetulus griseus, UniProt Q60457).
T1 construct: endogenous in cells; host or cells: CHO-K1 cells
T1 sequence (Q60457 1-546): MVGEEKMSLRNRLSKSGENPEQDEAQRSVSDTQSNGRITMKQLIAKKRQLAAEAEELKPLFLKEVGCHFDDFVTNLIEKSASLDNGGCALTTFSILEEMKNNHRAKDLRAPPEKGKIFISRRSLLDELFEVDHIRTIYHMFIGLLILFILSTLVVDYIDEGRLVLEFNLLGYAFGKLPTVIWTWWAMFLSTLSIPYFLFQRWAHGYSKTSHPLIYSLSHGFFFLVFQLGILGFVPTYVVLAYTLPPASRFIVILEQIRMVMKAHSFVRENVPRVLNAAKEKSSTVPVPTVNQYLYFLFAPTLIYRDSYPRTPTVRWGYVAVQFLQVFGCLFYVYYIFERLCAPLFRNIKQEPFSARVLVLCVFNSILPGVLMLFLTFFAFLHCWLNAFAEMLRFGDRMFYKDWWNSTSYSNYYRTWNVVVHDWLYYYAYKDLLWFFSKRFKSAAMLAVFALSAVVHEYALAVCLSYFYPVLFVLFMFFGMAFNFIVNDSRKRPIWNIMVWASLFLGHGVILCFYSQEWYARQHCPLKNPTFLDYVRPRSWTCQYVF
In words: ACAT-1 inhibition (avasimibe) blocking probe storage into lipid droplets. In kind it is cell-based, Chinese hamster. Particulars: CHO cells. As to the method:
(§4) It is hypothesized that PhDY-Chol is converted into PhDY-cholesteryl ester, by ACAT-1, the enzyme responsible for cholesterol esterification, as diagrammed in FIG. 4. To confirm the esterification of PhDY-Chol, we inhibited ACAT-1 with avasimibe for 24 h before addition of PhDY-Chol. […] Although LDs were still visible, the amount of PhDY-Chol signal found inside LDs reduced by 4 times (FIG. 4d). […] To determine where PhDY-Chol accumulates after ACAT-1 inhibition, we stained the cells with LysoTracker for lysosomes. […] To emphasize the physiological compatibility of our PhDY tag, we treated CHO cells with BODIPY-cholesterol.
as §4, with “important to note that PhDY-Chol-rich structures inside the CHO cells could not be stained by filipin (FIG. 10b), implicating that it is not in the free form. We hypothesize” for “hypothesized”, “esterification (FIG. 4b).” for “esterification, as diagrammed in FIG. 4.”
ACAT-1 inhibition was used to block cholesterol esterification either by adding a potent ACAT inhibitor, avasimibe, or by RNA interference with ACAT-1 shRNA plasmid. […]
(§5) To quantify PhDY-rich area, we first selected one cell and used “Threshold” function to select PhDY-rich cellular regions using ImageJ. […] To quantify PhDY-rich LDs, “Image Calculator” function in ImageJ was used to multiply SRS image of PhDY-Chol by TPEF image of BODIPY. Then, after using “Threshold” function to select PhDY-rich LDs, the number of PhDY-rich LDs was counted by “Analyze Particles” function. For each group, 7 cells were analyzed, and results were shown as mean±standard deviation (SD). […]

The subject of the next data set is M12 cells. In words: HPβCD treatment of PhDY-Chol-labeled M12 cells. The data set is classed as cell-based, Chinese hamster. The settings on record: HPβCD 500 μM, 30 h.
Text: We then treated the PhDY-Chol-labeled M12 cells with a cholesterol-mobilizing drug, hydroxypropyl-β-cyclodextrin (HPβCD). This drug is known to mediate lysosomal escape of cholesterol, and promote storage of excess cholesterol into LDs. […] These areas likely represent PhDY-cholesteryl ester stored in LDs. To confirm this possibility, we stained the cells with BODIPY for localization of LDs.
We then treated the PhDY-Chol-labeled M12 cells with a cholesterol-mobilizing drug, HPβCD^40. This drug is known to mediate lysosomal escape of cholesterol, and promote storage of excess cholesterol into LDs^41. […] These areas likely represent PhDY-cholesteryl ester stored in LDs. To confirm this possibility, we stained the cells with BODIPY for localization of LDs.
HPβCD was used as a drug treatment of NP-C disease. M12 cells were incubated with PhDY-Chol for 16 h as described above. […]
as §5

“Also recorded” adds a separate entry of the source.

Broadly, the IC50 is the point on the concentration scale where inhibition reaches its midpoint. On to `C#CCC[C@@H](C)[C@H]1CC[C@H]2[C@@H]3CC=C4C[C@@H](O)CC[C@]4(C)[C@H]3CC[C@]12C` [A-Chol, alkyne cholesterol], for which the “late apoptosis and necrosis, propidium iodide staining” value (“late apoptosis and necrosis” below) was “reduced density and extensive apoptosis” in the data set with CHO cells [1]; “induces apoptosis and necrosis” in the data set with CHO cells [1] (listed as alkyne-cholesterol). Further, in data set [2], the IC50 at 48 h amounted to 16 µM. For the same compound, the “cytotoxicity in MTT cell-viability assay” value in the data set on CHO cells [3] (CHO cells, various concentrations, 48 h) is “toxic to the cells”.

Turning to `CC1=CC(C)=[N+]2C1=C(CC[C@@H](C)[C@H]1CC[C@H]3[C@@H]4CC=C5C[C@@H](O)CC[C@]5(C)[C@H]4CC[C@]13C)c1c(C)cc(C)n1[B-]2(F)F` [BODIPY-cholesterol, reference compound], the “photostability / photo-bleaching of signal” value in data set [4] was “rapid photo-bleaching”. Besides, the “amount of probe incorporated into LDs after ACAT-1 inhibition” value on ACAT-1 (ACAT-1 inhibited vs control) is “did not change; also recorded: no difference between the two groups”.

On to `C[C@H](CCC#Cc1ccccc1)[C@H]1CC[C@H]2[C@@H]3CC=C4C[C@@H](O)CC[C@]4(C)[C@H]3CC[C@]12C` [PhA-Chol, phenyl-alkyne cholesterol], for which the “late apoptosis and necrosis” value with CHO cells [1] is “minimum cell death”.

With `C[C@H](CCC#CC#Cc1ccccc1)[C@H]1CC[C@H]2[C@@H]3CC=C4C[C@@H](O)CC[C@]4(C)[C@H]3CC[C@]12C` [PhDY-Chol, phenyl-diyne cholesterol], the “photostability / photo-bleaching of signal” value in data set [4] is listed as “No significant change of the SRS signal”. Moreover, the “reduction of probe signal found inside LDs after ACAT-1 inhibition” value at ACAT-1 (avasimibe 10 μM 24 h pre-treatment) is reported as 4 times. In addition, the “localization after ACAT-1 inhibition (LysoTracker staining)” value on ACAT-1 (avasimibe treatment) is recorded as “partially located in lysosomes”. For the same compound, the “late apoptosis and necrosis” value in the data set on CHO cells [1] is “minimum cell death”. Besides, the cytotoxicity result with CHO cells [3] (16 h incubation at 50 μM) is “did not cause cytotoxicity”.

In the case of hydroxypropyl-β-cyclodextrin [HPβCD], the “amount of PhDY-Chol in M12 cells after treatment” value in the data set with M12 cells is recorded as “decreased by half”. Further, the “number of PhDY-rich LDs after treatment” value in the data set on M12 cells (BODIPY staining) is recorded as “increased significantly”.
